Like-named read-outs stand apart in the source and are kept apart here.

Format in all cases: cell-based
One test addresses T1, mouse P23H opsin (Mus musculus, UniProt P15409, P23H).
T1 construct: expressed in transfected cells
The test can be described thus: Immunostain and image-based high-content analysis of P23H mutant opsin in NIH3T3 cells. The conditions noted are these: ratio of P23H rod opsin fluorescence on plasma membrane to whole cell; for EC50: read-out: Immunostaining HCS MEM-Total ratio EC50. The source says: Three NIH3T3 stable cell lines, NIH3T3-(WT-opsin/GFP), NIH3T3-(P23H-opsin/GFP), and NIH3T3-(GFP) were previously generated which stably express mouse WT opsin and GFP; P23H opsin and GFP; and only GFP, respectively. GFP is expressed separately from opsin in these cell lines. NIH3T3 cells were from ATCC. DNA constructs for generating these stable cell lines were confirmed by Sanger sequencing. Expression of GFP was confirmed by green fluorescence imaging, and expression of P23H and WT opsin were confirmed by immunoblots.
To characterize the effect of active compounds on the localization of P23H mutant opsin in mammalian cells, an image-based assay was used with cells immunostained for WT or P23H mutant opsin protein. Briefly, NIH3T3-(P23H-opsin/GFP) or NIH3T3-(WT-opsin/GFP) cells were seeded at 5,000 cells per well in a 384-well cell-carrier plate (PerkinElmer) and incubated at 37° C. with 5% CO2 for 2 h. Cells were treated with compounds as described for the β-Gal fragment complementation assay and incubated in assay medium for 24 h. The assay medium then was aspirated, and cells were fixed with 4% paraformaldehyde at 20 μL per well for 20 min at RT. Cells were immunostained in one of two ways: cell membranes were either permeabilized with 0.1% Triton X-100 for 15 min or left intact and then were incubated with 10% goat serum (Life Technologies). To detect opsin on the cell plasma membrane only, intact cells were immunostained with 20 μL per well of 20 μg mL^−1 B6-30 anti-rhodopsin antibody that recognizes the N-terminal epitope on the extracellular side of rhodopsin. To detect total opsin, cells were permeabilized with Triton X-100 and immunostained with 50 μg mL^−1 1D4 anti-rhodopsin antibody specific for the C-terminal epitope on the intracellular side of rhodopsin. Opsin immunostaining was visualized by incubating cells with 5 μg mL^−1 Cy3-conjugated goat anti-mouse IgG antibody. Three washes with phosphate-buffered saline (PBS: 10 mM Na2HPO4, 1.8 mM KH2PO4, pH 7.4, 137 mM NaCl, and 2.7 mM KCl) were performed between each step of incubation with antibody. In the last wash with PBS, DAPI was added to each well at 300 nM. Fluorescence images were obtained with the Operetta High Content Imaging System (PerkinElmer) using a 20× long objective. Five fields were taken of each well for cell images using three channels for fluorescence: GFP (100 ms), Cy3 (300 ms), and DAPI (50 ms). Images were analyzed with Acapella software from the Columbus data storage and analysis system (PerkinElmer). For cells immunostained with opsin on the non-permeabilized cell membrane only, an average of total fluorescence intensity of Cy3 per cell was used to quantify opsin in each well of the 384-well plate. For cells immunostained with opsin in permeabilized whole cells, an average ratio of Cy3 intensity on the cell plasma membrane (PM) to that of the entire cell (opsin ratio PM-to-total) was calculated for each well of a 384-well plate to quantify opsin transport to the plasma membrane. The plasma membrane was defined within ±5% of the cell border.

The next test concerns the target mouse P23H opsin mutant (Mus musculus, UniProt P15409, P23H). Description: β-Gal fragment complementation assay: rescue of P23H opsin transport from ER to plasma membrane, U2OS(PLC-EA/P23H-PK) cells. The conditions noted are these: for Emax: U2OS, Table 1; for EC50: read-out: β-Gal fragment complementation assay Activity score (%) EC50. The text has this:
U2OS(PLC-EA/P23H-PK) cells. A U2OS stable cell line was generated by DiscoveRx, Inc. (Fremont, CA, USA) for the β-Gal fragment complementation assay used in the small molecule HTS for rescue of P23H opsin transport. U2OS cells that continually express P23H-PK and PLC-EA fusion proteins were generated. Briefly, this small subunit of […] (PK fragment) was fused to the C-terminal of the mouse P23H opsin mutant, while the large EA fragment, a subunit of […], was fused with PLC, a plasma membrane anchored peptide. Both constructs were subcloned by DicoveRx, Inc. and transferred into U2OS cells by viral infections. Positive clones were selected under treatment with hygromycin and geneticin.
Briefly, U2OS(PLC-EA/P23H-PK) cells were suspended in assay medium at 3×10^5 cells mL^−1. The cell suspension was dispensed into 384-well plates (Greiner Bio-one, Monroe, NC, USA) at 20 μL per well, with a Multidrop dispenser (Thermo Scientific, Waltham, MA, USA). Plates with cells then were centrifuged at 200 g for 15 s before incubation at 37° C. with 5% CO2. Plates were removed 24 h later for treatment with tested compounds. A total of 248 plates containing 79,080 compounds from three small molecule libraries were paired with an equal number of assay plates with cultured cells. Due to a limited capacity, these plates were assayed in seven batches. An average of 56.3 nL of 10 mM compound in DMSO was dispensed into each well from column 3 to 22 of paired assay plates using a 50 nL 384-pintool system, such that the final concentration of each compound was 22.52 μM on average. […] Each assay plate was shaken for 5 s before further incubation at 37° C. with 5% CO2. […] Assay plates were incubated in the dark for 60-90 min, and luminescence was read from each assay plate with an Envision microplate reader (PerkinElmer) during a 0.1 s per well integration time. The mean and s.d. of readouts in column 2 of each plate were calculated as Mean0% and SD0%, whereas the average and s.d. of readouts in column 23 were calculated as Mean100% and SD100%. Equation 1: Activity scores (%)=(RLUcp−Mean0%)/(Mean100%−Mean0%)×100%, where RLUcp is the relative luminescence unit derived for cells treated with a compound. Equation 2: Z′-factor=1-3×(SD0%+SD100%)/(Mean100%−Mean0%); Equation 3: signal-to-background (S/B) ratio=Mean100%/Mean0%. Activities of all tested compounds were registered with their compound ID by GeneData Screener (Genedata, Basel, Switzerland) and Pipeline Pilot software (Accelrys, San Diego, CA, USA). Hits, cherry-picked from a separate stock dose-dependent activity test, were selected with an activity score cutoff at 20%. Activity of each hit was tested again with the β-Gal fragment complementation assay in a 10-dose series with each dose tested in triplicate. The 10 doses tested were 80, 40, 20, 10, 5, 2.5, 1.25, 0.625, 0.313, and 0.156 μM. Dose-dependent curves of each hit compound were fitted with GeneData and Origin software.
Detailed synthetic steps are described in FIG. 18. […] YC-002-YC-021 were purchased from commercial vendors including Enamine LLC (Monmouth Jct., NJ, USA), Matrix Scientific (Columbia, SC, USA) and Tokyo Chemical Industry Co., Ltd. (Portland, OR, USA). […] Activities of YC compounds were tested with the β-Gal fragment complementation assay, as described in a prior section. All YC compounds were tested at 10 doses, each in triplicate: 80, 40, 20, 10, 5, 2.5, 1.25, 0.625, 0.313, and 0.156 μM.

Another test addresses T2, P23H opsin (Mus musculus, UniProt P15409, P23H).
T2 construct: expressed in transfected cells
Description: Immunoblot of P23H opsin glycosylation in NIH3T3 cells. Also noted: key to Improved glycosylation: n = no; y = yes. The settings on record: P23H opsin. As to the method:
NIH3T3-(P23H-opsin/GFP) or NIH3T3-(WT-opsin/GFP) cells were seeded in a 48-well plate (Corning Costar) at 3.2×10^5 cells per well and incubated at 37° C. with 5% CO2 for 2 h. One hundred-μL of assay medium containing a compound at 5× its final concentration was added to each well. The plate was gently shaken for 5 s before further incubation at 37° C. with 5% CO2 for 24 h. The assay medium then was aspirated, and cells were lysed with 100 μL per well PBS containing 0.1% Triton X-100 and complete protease inhibitor cocktail (Roche, Basel, Switzerland) followed by sonication for 3 s. Protein concentrations were determined with the Bradford assay. For PNGase F catalyzed deglycosylation, 3 μL of PNGase F (1,500 U, NEB) was added to the cell lysate and the mixture was incubated at room temperature for 1 h before immunoblotting. For NIH3T3-(P23H-opsin/GFP) cells, 15 μg of total protein were loaded per well onto an SDS-polyacrylamide gel; whereas for NIH3T3-(WT-opsin/GFP) cells, 10 μg of total protein was loaded per well. Opsin protein was immunostained with 0.2 μg mL^−1 horseradish peroxidase-conjugated 1D4 anti-rhodopsin antibody. Band intensities were measured with ImageJ software (http://imagej.nih.gov/ij/; National the Institutes of Health, Bethesda, MD, USA) and normalized to a glyceraldehyde 3-phosphate dehydrogenase (GAPDH) loading control.
Background: In western blotting, separated proteins are transferred to a membrane and probed.

Where [1] appears, read: experimental maximum, read-out: β-Gal fragment complementation assay Activity score (%) Max (Exp).
Where [2] appears, read: fitted maximum, read-out: β-Gal fragment complementation assay Activity score (%) Max (fit).

`O=C(NCC#CCN1CCCC1)c1cc(-c2ccccc2)on1` [Compound F6244-1415]: on mouse P23H opsin, the “Immunostaining HCS MEM-Total ratio Max (fit)” value worked out at 0.063. Further, the figures for the EC50 on mouse P23H opsin and at mouse P23H opsin mutant were 4.2 µM and 8.61 µM, respectively. Besides, the Emax came out at 24.8% on mouse P23H opsin mutant (setting [1]) and 25.2% on mouse P23H opsin mutant (setting [2]). Besides, at P23H opsin, the Improved glycosylation result is listed as “n”.

For `Cc1cc(OCC(=O)Nc2cc(N3CCOCC3)ncn2)cc(C)c1Cl` [Compound F6257-1860], the “Immunostaining HCS MEM-Total ratio Max (fit)” value at mouse P23H opsin is 0.022. The EC50 was 1.07 µM on mouse P23H opsin and 10.7 µM at mouse P23H opsin mutant. The Emax on mouse P23H opsin mutant (setting [1]) was found to be 211%; at mouse P23H opsin mutant (setting [2]) it was 234%. For the same compound, the Improved glycosylation entry on P23H opsin is recorded as “n”.

(Values after patent US12251373B2, “Compounds and methods of treating retinal degeneration” (CASE WESTERN RESERVE UNIVERSITY, priority 2017, dated 2025).)
